From US20150031760A1, “PHARMACEUTICAL COMPOSITION FOR PREVENTING OR TREATING NERVOUS SYSTEM DISORDERS COMPRISING SULFURETIN OR PHARMACEUTICALLY ACCEPTABLE SALT THEREOF” (Research and Business Foundation SUNGKYUNKWAN UNIVERSITY, priority 2010, published 2015)
No end group written: not given here.

How the values were obtained:
[1] = MTT (cell viability) test, induced cell death in SH-SY5Y cells; details: human
Protocol: (§1) The incubator was maintained at a temperature of 37° C., and a mixed gas of 95% air and 5% CO2 was continuously supplied thereto to provide suitable conditions for cell culture. The cells were cultured in a 6-well plate or a 96-well plate at each of densities of 1×10^6 and 2×10^4 cells/well 24 hours before the experiment. […] Sulfuretin was used in ethanol and used at a final concentration of 0.1% or less.
To measure cell viability, an MTT reduction assay was used. An MTT solution was added to each well of the 96-well plate (in which the cells have been cultured) to a final concentration of 0.5 mg/ml. The plate was incubated in an incubator for 2 hours, and the medium and the MIT solution were removed, after which DMSO was added thereto and stirred. When DMSO was completely dissolved, the UV absorbance at 540 nm was measured using a microplate reader (Molecular device, USA).
The measured absorbance was substituted into the following equation to calculate cell viability:
Cell viability (%)=[(O.D. of control−O.D. of test group)/O.D. of control]×100

[2] = MTT (cell viability) test, corticosterone-induced cell death in PC12 cells; type: cell-based; details: rat
Protocol: For the experiment shown in FIG. 3, PC12 cells were cultured in DMEM medium (Hyclone, Thermo, USA) containing 10% FBS, 5% horse serum and antibiotics (Gibco-BRL, USA). […] The concentration of corticosterone was determined to be 400 μM after evaluation of cell viability.

SH-SY5Y cells [3] = assay: LDH secretion (cytotoxicity) test; type: cell-based, human
Protocol: as §1
To measure LDH secretion (cytotoxicity), an LDH cytotoxicity assay kit was used. 50 μl of the medium was taken from each well of the 96-well plate (in which the cells have been cultured) and dispensed into each well of a fresh 96-well plate, and 50 μl of a reaction reagent was added to each well, after which the plate was shielded from light. The plate was incubated in an incubator for 30 minutes, and the UV absorbance at 490 nm was measured using a microplate reader (Molecular device, USA).
The measured absorbance was substituted into the following equation to calculate LDH secretion:
LDH secretion (%)=(LDH secretion O.D. in medium/total LDH secretion O.D.)×100

SH-SY5Y cells [4] = assay: Inhibition of ROS production (DCFH-DA fluorescence); type: cell-based, human; details: hydrogen peroxide alone, 30 minutes; control 102% or less
Protocol: as §1
In order to measure ROS elimination activity, cells were labeled with DCFH-DA fluorescence, and quantitative analysis was performed using a fluorescence meter.
Specifically, the 6-well plate in which the cells have been cultured was pretreated with sulfuretin for 2 hours, and then reacted with hydrogen peroxide for 30 minutes to induce ROS. Then, 10 μl of 10 mM DCFH-DA was added to the plate and allowed to react with the cells for 30 minutes. Herein, DCFH-DA in the incubator was covered with a foil such that it would not be exposed to light. The cells that reacted with the DCFH-DA fluorescent substance were detached using cold PBS and centrifuged at 400 g for 3 minutes. The centrifugation process was repeated twice to wash the fluorescent substance. The washed cells were briefly stirred with 1 ml of PBS, and 100 μl was dispensed into each of a fresh 96-well plate. Then, fluorescence was measured at an excitation wavelength of 488 nm and an emission wavelength of 515 nm using a fluorescence meter (Perkinelmer, USA).
The measured value was substituted into the following equation to calculate ROS production:
ROS production (%)=[(O.D. of control−O.D. of test group)/O.D. of control]×100

SH-SY5Y cells [5] = assay: Inhibition of intracellular [Ca2+] influx (Fura-2-AM fluorescence); type: cell-based, human; details: hydrogen peroxide alone, 30 minutes; normal control 281 nM or less
Protocol: as §1
In order to measure inhibitory effects on intracellular [Ca^2+] influx caused by oxidative stress, cells were labeled with Fura-2-AM fluorescence, and quantitative analysis was carried out using a fluorescence meter. Specifically, 10 μl of 5 μM Fura-2-AM was added to each well of the 6-well plate (in which the cells have been cultured) and then allowed to react for 30 minutes. Herein, Fura-2-AM in the incubator was covered with a silver foil such that it would not be exposed to light. After completion of the incubation, the plate was pretreated with sulfuretin for 30 minutes, and then reacted with hydrogen peroxide for 30 minutes to induce the intracellular influx of [Ca^2+]. Then, the cells that reacted with the Fura-2-AM fluorescent substance were washed twice with cold HEPES and detached with HEPES. Then, the cells were centrifuged at 400 g for 3 minutes. The supernatant was removed carefully, stirred weakly with 0.5 ml of HEPES buffer, and then 150 μl was dispensed into each well of a fresh 96-well plate. The fluorescence of the sample dispensed into the fresh 96-well plate was measured at an excitation wavelength of […] and an emission wavelength of 520 nm using a fluorescence meter (Perkinelmer, USA).
The measured value was substituted into the following equation to calculate intracellular [Ca^2+] nM: […]

SH-SY5Y cells [6] = assay: Inhibition of mitochondrial membrane potential (MMP) damage (rhodamine-123); type: cell-based, human; details: hydrogen peroxide alone, 30 minutes; normal control 99% or less
Protocol: as §1
In order to measure the inhibition of MMP damage, cells were labeled with rhodamine-123 fluorescence, and quantitative analysis was performed using a fluorescence meter. Specifically, the 6-well plate in which the cells have been cultured was pretreated with sulfuretin for 30 minutes and then reacted with hydrogen peroxide for 30 minutes to induce MMP damage. Then, 10 μl of 10 μM rhodamine-123 was added to each well of the plate and allowed to react for 30 minutes. Herein, rhodamine-123 in the incubator was covered with a silver foil such that it would not be exposed to light. The cells that reacted with the rhodamine-123 fluorescent substance were detached with cold PBS and centrifuged at 400 g for 3 minutes. The centrifugation process was repeated twice to wash the fluorescent substance. The washed cells were stirred briefly with 0.5 ml of PBS, and 100 μl was dispensed into each well of a fresh 96-well plate. The fluorescence of the cells was measured at an excitation wavelength of 480 nm and an emission wavelength of 530 nm using a fluorescence meter (Perkinelmer, USA).
The measured fluorescence was substituted into the following equation to calculate ΔΨm:
ΔΨm(%)=[(O.D. of control−O.D. of test group)/O.D. of control]×100

PARP = assay: Western blot, PARP expression; type: cell-based, human; details: SH-SY5Y cells; hydrogen peroxide alone, 24 hours; normal control 100%
Protocol: as §1
(§2) In order to identify the effect of sulfuretin on the expression of proteins related to dementia, Alzheimer's disease, Parkinson's disease and strokes, a Western blot test was carried out.
(§3) After 24 hours, the supernatant of each well was collected and centrifuged at 400 g for 3 minutes, and the cells were washed with cold PBS and lysed with 100 μl of T-PER lysis buffer (Thermo, USA) for 30 minutes. The lysates were centrifuged at 10000 g at 4° C. for 15 minutes, and the supernatants were stored at […] until use as test samples. Proteins were quantitatively analyzed using a BCA assay kit (Thermo, USA) and separated within 8.5-12% SDS gel and then transferred to PVDF membranes. To examine the expression of the proteins, the development of fluorescence was analyzed by enhanced chemiluminescence (ECL). Specifically, the membrane was blocked with 5% skimmed non-fat milk for 1 hour and labeled with the primary antibodies, PARP, caspase-3, phospho-p38, phospho-JNK and β-actin at 4° C. overnight. Then, the membrane was washed three times with Tris-tween buffered saline (TTBS), and then labeled with horseradish peroxidase (HRP)-conjugated anti-rabbit and anti-mouse secondary antibodies at room temperature for 1 hour. Then, the membrane was washed five times with TTBS for 10 minutes. The washed film was developed by ECL using x-ray films, and concentrations were quantitatively analyzed using quantitative analysis program (Fujifilm, Japan).

caspase-3 = assay: Western blot, caspase-3 expression; type: cell-based, human; details: SH-SY5Y cells; hydrogen peroxide alone, 24 hours; normal control 100%
Protocol: as §1, §2, §3

phospho-p38 = assay: Western blot, phospho-p38 expression; type: cell-based, human; details: SH-SY5Y cells; hydrogen peroxide alone, 24 hours; normal control 100%
Protocol: as §1, §2, §3

phospho-JNK = assay: Western blot, phospho-JNK expression; type: cell-based, human; details: SH-SY5Y cells; hydrogen peroxide alone, 24 hours; normal control 100%
Protocol: as §1, §2, §3

mice [7] = assay: Scopolamine-induced cognitive impairment, spontaneous alternation behavior Y-maze test; type: in vivo; details: scopolamine 0.5 mg/kg, i.p., compared with the control group (p<0.05)
Protocol: (§4) Male ICR mice (4-weeks-old, 18-20 g) were purchased from Koatech Co., Ltd. (Pyongtaek, Korea). Mice were housed 10 per cage, allowed access to water and food ad libitum, and maintained in constant temperature (23±1° C.) and humidity (55±5%) conditions under a 12 hour light/dark cycle (lights on 07:00 to 19:00 h). All experiments were conducted in accord with the NIH Guide for the Care and Use of Laboratory Animals and with the approval of the Institutional Animal Care and Use Committee of Sungkyunkwan University.
The spontaneous alternation behavior was measured by Y-maze which consists of a horizontal maze (30 cm long and 5 cm wide, with walls 12 cm high) with three arms (labeled A, B, and C). The maze floor and walls are constructed of dark grey, polyvinyl plastic. Mice were initially placed within one arm, and the number of alternations (i.e., consecutive entry sequences of ABC, CAB, or BCA but not BAB) and the number of arm entries were manually recorded for each mouse over an 8 minutes period. One hour before each test, the mice were given sulfuretin (0.25, 0.5, or 1 mg/kg, p.o.). After 30 minutes, memory impairment was induced by administering scopolamine (0.5 mg/kg, i.p.). […] The percentage alternation was calculated according to the following equation: Percentage alternation=[(Number of alternations)/(Total arm entries−2)]×100. […]

mice [8] = assay: Scopolamine-induced learning and memory deficits, step-through passive avoidance test; type: in vivo; details: scopolamine 0.5 mg/kg, i.p. (p<0.05)
Protocol: as §4
Assessment of the training or test trials of the passive avoidance test was carried out in identical illuminated and non-illuminated compartments (12×10×12 cm) containing 2-mm stainless steel rods spaced 0.5 cm apart. A 50 W lamp positioned 1 meter above both chambers illuminated the apparatuses. Briefly, the mice underwent two separate trials, a training trial and a test trial 24 hours later. For the training trial, mice were initially placed in the clear chamber. When they entered the dark chamber, the door closed and a 3-sec electrical foot shock (0.5 mA) was delivered through the stainless steel rods. One hour before each training trial, mice were given sulfretin (0.25, 0.5, or 1 mg/kg, p.o.). After 30 minutes, memory impairment was induced by administering scopolamine (0.5 mg/kg, i.p.). Twenty-four hours after the training trial, mice were placed in the illuminated chamber for the test trial. The time for the mouse to enter the dark compartment after the door opening was defined as latency for both training and test trials. Latencies were recorded for up to 300 s. To avoid a ceiling effect in unimpaired animals, sulfuretin alone was administered 1 hour before the training trial without scopolamine treatment. The intensity of electrical foot shock was set at 0.25 mA for 3 seconds. This lower intensity shock allowed for a behavioral window through which to detect any enhancing effect of sulfuretin.

SH-SY5Y cells [9] = assay: LDH assay, amyloid beta25-35-induced cytotoxicity; type: cell-based, human; details: 20 μM amyloid beta25-35 alone for 24 h, versus control cells (p<0.001)
Tau = assay: Western blot, amyloid beta25-35-induced hyperphosphorylation of Tau; type: cell-based, human; details: SH-SY5Y cells; 20 μM amyloid beta25-35 alone, compared with control samples (p<0.05 and p<0.01)

NCCc1cc(O)c(O)cc1O [6-hydroxydopamine, reference compound]
viability at 200 µM [1]: ≥ 69%

C[C@]12C[C@H](O)[C@H]3[C@@H](CCC4=CC(=O)CC[C@@]43C)[C@@H]1CC[C@@H]2C(=O)CO [corticosterone, Corticosterone, reference compound]
viability at 400 µM [2]: ≥ 55%

OO [hydrogen peroxide, reference compound]
viability at 400 µM ([1]; cell viability): ≥ 55% | LDH secretion (SH-SY5Y cells [3]; hydrogen peroxide alone, normal control 11% or less): ≥ 80% | ROS production (SH-SY5Y cells [4]): ≥ 148% | intracellular [Ca2+] influx (SH-SY5Y cells [5]): ≥ 600 nM | MMP (ΔΨm) (SH-SY5Y cells [6]): ≤ 55% | PARP expression (PARP): ≤ 38% | caspase-3 expression (caspase-3): ≤ 40% | phospho-p38 expression (phospho-p38): ≥ 133% | phospho-JNK expression (phospho-JNK): ≥ 173%

CN1[C@@H]2C[C@@H](OC(=O)[C@H](CO)c3ccccc3)C[C@H]1[C@@H]1O[C@@H]12 [scopolamine, reference compound]
spontaneous alternation behavior (mice [7]): significantly decreased | step-through latency time (test trial) (mice [8]): decreased

GSNKGAIIGLM [beta-amyloid, amyloid-beta 25-35 fragment, reference compound]
LDH secretion (SH-SY5Y cells [3]; beta-amyloid alone, normal control 12% or less): ≥ 15% | LDH activity (LDH release) (SH-SY5Y cells [9]): increased significantly | phosphorylation of Tau proteins (Tau): rapidly increased
